# Data from patent publication US10071106B2, “Steroidal nitrones for the treatment and prevention of a cerebral stroke or ischaemia, alzheimer and parkinson disease and amyotrophic lateral sclerosis” (FUNDACIÓN PARA LA INVESTIGACIÓN BIOMÉDICA DEL HOSPITAL …, priority 2013, dated 2018).
# What was measured:
# [1] = test system: primary neuronal cultures taken from the cerebral cortex of rats; test: Neuroprotection in primary neuronal cultures exposed to OGD 4 h and 24 h reperfusion (MTT cell viability); format: cell-based; details: for neuronal viability (versus 100% control): added at beginning of reperfusion, OGD 4 h, R24h
# Excerpt: The neuroprotective power of cholesteronitrones F2 and F3 has been determined in primary neuronal cultures, cultured from 6 to 8 days, taken from the cerebral cortex of rats (Quevedo, C, Salinas, M, Alcázar, A. Initiation factor 2B activity is regulated by protein phosphatase 1, which is activated by the mitogen-activated protein kinase-dependent pathway in insulin-like growth factor 1-stimulated neuronal cells. J. Biol. Chem. 2003, 278, 16579-16586), and subjected to oxygen-glucose deprivation (OGD) (Chioua M, Sucunza D, Soriano E, Hadjipavlou-Litina D, Alcázar A, Ayuso I, Oset-Gasque M J, González M P, Monjas L, Rodríguez-Franco M I, Marco-Contelles J, Samadi A. α-aryl-N-alkyl nitrones, as potential agents for stroke treatment: synthesis, theoretical calculations, antioxidant, anti-inflammatory, neuroprotective, and brain-blood barrier permeability properties. J Med Chem. 2012, 55, 153-168), according to the following protocol:
# Cell viability was measured using 3-(4,5-dimethylthiazol-2-yl)-2,5-diphenyl tetrazolium bromide (MTT).
# Cholesteronitrones F2 and F3, in a range of concentrations from 0.1 to 100 μM, and from 0.5 to 10 μM, respectively, were added at the beginning of the reperfusion period to evaluate their neuroprotective power, using citicoline, a well-known neuroprotective agent, as a reference compound (Adibhatla, R M, Hatcher, J F, Dempsey, R J. Citicoline: neuroprotective mechanisms in cerebral ischemia. J. Neurochem. 2002, 80, 12-23). Citicoline was tested at variable concentrations, between 1 μM and 1 mM, a neuroprotective effect being found at 10 and 100 μM (87.4 and 88.1%, respectively), the effect of 100 μM being significant compared with the value obtained at R24h (analysis of variance (ANOVA), p<0.0021; and p<0.01, post-Dunnett test].
# [2] = test system: primary neuronal cultures taken from the cerebral cortex of rats; test: Long-term neuroprotection in neuronal cultures exposed to OGD 4 h and reperfusion for 5 d (R5d), MTT; format: cell-based
# Method: To evaluate the neuroprotective power of cholesteronitrones F2 and F3 against ischaemic damage in cultured neurons and simulate long-term reperfusion conditions, the cultures were exposed to OGD for 4 h, and the cells were then subjected to reperfusion for 5 d (R5d).
# Cholesteronitrones F2 and F3 (at concentrations of 1.0 and 5.0 μM) were added at the beginning of the reperfusion period and after 48 h of reperfusion, to thus evaluate their long-term neuroprotective power, again using the reference molecule citicoline, according to the protocol of the MTT (see above).
# [3] = test system: global ischaemia in adult rats; test: Global ischaemia by four-vessel occlusion, neuronal death by Fluoro-Jade B after 5 d reperfusion; format: in vivo; details: R5d, 0.1 mg/kg intraperitoneally
# Excerpt: (§1) Global ischaemia was induced in adult rats according to the conventional four-vessel occlusion method [(a) Martín de la Vega C, Burda J, Nemethova M, Quevedo C, Alcázar A, Martín M E, Salinas M. Possible mechanisms involved in the down-regulation of translation during transient global ischaemia in the rat brain. Biochem J 2001, 357, 819-826; (b) García-Bonilla L, Cid C, Alcázar A, Burda J, Ayuso I, Salinas M. Regulation proteins of eukaryotic initiation factor 2-alpha subunit (eIF2a) phosphatase, under ischemic reperfusion and tolerance. J Neurochem 2007, 103, 1368-1380; (c) Ayuso M I, Hernández-Jiménez M, Martín M E, Salinas M, Alcázar A. New hierarchical phosphorylation pathway of the translational repressor eIF4E-binding protein 1 (4E-BP1) in ischemia-reperfusion stress. J Biol Chem 2010, 285, 34355-34363].
# (§2) Therefore, the two vertebral arteries were completely cauterized, and after 24 h ischaemia is induced by carotid occlusion by means of small clamps for 15 min; the clamps were then removed and reperfusion was performed. After 5 d (R5d), the animals were sacrificed. The animals were treated with cholesteronitrone F2, diluted in 10% ethanol in saline solution as a carrier, administered intraperitoneally from the beginning of the reperfusion period. Ten animals were tested; one of the five animals treated with carrier died 2 d after reperfusion. All the protocols used in the experiments with animals were performed according to the guidelines approved by the Ethics Committee of Hospital Ramón y Cajal (Madrid). In the model of four-vessel occlusion cerebral ischaemia in rats, after a brief period of ischaemia delayed neurodegeneration is produced in the CA1 region of the hippocampus [(a) Kirino T. Delayed neuronal death. Neuropathology 2000, 20, S95-S97; (b) Pulsinelli W A, Brierley J B, Plum F. Temporal profile of neuronal damage in a model of transient forebrain ischaemia. […]
# [4] = test system: global ischaemia in adult rats; test: Global ischaemia by four-vessel occlusion, apoptosis by TUNEL method after 5 d reperfusion; format: in vivo; details: R5d
# Excerpt: as §1, §2
# [5] = 1 μM, added at the beginning of reperfusion
# [6] = 5 μM, added at the beginning of reperfusion
smiles,measurement,setting,value
"CC(C)CCC[C@@H](C)[C@H]1CC[C@H]2[C@@H]3CCC4=C/C(=[N+](\C)[O-])CC[C@]4(C)[C@H]3CC[C@]12C [cholesteronitrone F2, (E)-N-((8S,9S,10R,13R,14S,17R)-10,13-dimethyl-17-((R)-6-methylheptan-2-yl)-7,8,9,11,12,13,14,15,16,17-decahydro-1H-cyclopenta[a]phenanthren-3(2H,6H,10H)-ylidene)methanamine oxide]",Neuroprotection (%),"[1]; 0.1 μM, OGD conditions",9.6 ± 0.5%
same,Neuroprotection (%),"[1]; 0.5 μM, OGD conditions",49.3 ± 3.6%
same,Neuroprotection (%),"[1]; 1.0 μM, OGD conditions",54.3 ± 1.3 %
same,neuronal viability (versus 100% control),[1]; 1 μM,89.1%
same,neuroprotection compared with citicoline,"[1]; 5 μM, OGD conditions",significantly higher neuroprotection than that observed for citicoline
same,Neuroprotection (%),"[1]; 5.0 μM, OGD conditions",80.7 ± 2.7 %
same,neuronal viability (versus 100% control),[1]; 5 μM,95.5%
same,Neuroprotection (%),"[1]; 10 μM, OGD conditions",47.2 ± 1.4%
same,Neuroprotection (%),"[1]; 50 μM, OGD conditions",<0%
same,Neuroprotection (%),"[1]; 100 μM, OGD conditions",<0%
same,neuronal viability in R5d experiment (versus 100% control),"[2]; 1 μM, added after 48 h of reperfusion",95.7%
same,neuronal viability in R5d experiment (versus 100% control),[2]; [5],110.6%
same,neuronal viability in R5d experiment (versus 100% control),[2]; [6],118.2%
same,"neuronal death, Fluoro-Jade B","[3]; CA1 region, saline/carrier 70.4±2.4",55.1±3.4 cells per field
same,"neuronal death, Fluoro-Jade B","[3]; cerebral cortex, carrier 6.7±3.5",0±0.1 cells per field
same,"neuronal death, Fluoro-Jade B","[3]; lateral cortex, carrier 13.4±3.6",6.3±2.2
same,"neuronal apoptotic death, TUNEL-positive","[4]; CA1 area, carrier 64.1±7.1",48.5±0.4 nuclei per field
same,"neuronal apoptotic death, TUNEL-positive","[4]; cerebral cortex, carrier 7.2±3.8",1±0.5 nuclei per field
same,"neuronal apoptotic death, TUNEL-positive","[4]; lateral cortex, carrier 13.3±6.2",4.3±1.4
"CC(C)CCC[C@@H](C)[C@H]1CC[C@H]2[C@@H]3CCC4=C/C(=[N+](/C)[O-])CC[C@]4(C)[C@H]3CC[C@]12C [cholesteronitrone F3, (Z)—N-((8S,9S,10R,13R,14S,17R)-10,13-dimethyl-17-((R)-6-methylheptan-2-yl)-7,8,9,11,12,13,14,15,16,17-decahydro-1H-cyclopenta[a]phenanthren-3(2H,6H,10H)-ylidene)methanamine oxide]",Neuroprotection (%),"[1]; 0.5 μM, OGD conditions",<0%
same,Neuroprotection (%),"[1]; 1.0 μM, OGD conditions",18.8 ± 1.1%
same,Neuroprotection (%),"[1]; 5.0 μM, OGD conditions",21.7 ± 1.2%
same,Neuroprotection (%),"[1]; 10 μM, OGD conditions",0.8 ± 0.07%
same,significant increase of neuronal viability during reperfusion,"[1]; 1 or 5 μM, compared with R24h",not
same,neuronal viability in R5d experiment (versus 100% control),[2]; [5],105.6%
same,neuronal viability in R5d experiment (versus 100% control),"[2]; 5 μM, added after 48 h of reperfusion",97.8%
same,neuronal viability in R5d experiment (versus 100% control),[2]; [6],118.6%
"C[N+](C)(C)CCOP(=O)(O)OP(=O)([O-])OC[C@H]1O[C@@H](n2ccc(N)nc2=O)[C@H](O)[C@@H]1O [citicoline, reference compound]",neuronal viability (versus 100% control),[1]; 10 μM,87.4%
same,Neuroprotection (%),"[1]; 100 μM, OGD conditions",50.2 ± 1.26%
same,neuronal viability (versus 100% control),[1]; 100 μM,88.1%
same,neuronal viability in R5d experiment (versus 100% control),"[2]; 100 μM, added after 48 h of reperfusion",74.6%
same,neuronal viability in R5d experiment (versus 100% control),"[2]; 100 μM, added at the beginning of reperfusion",76.0%
